Experimental data from patent publication EP0614662A1, “Use of (2E,4E,6E,10E)-3,7,11,15-tetramethyl-2,4,6,10,14-hexadecapentaenoic acid for the treatment of leukaemia” (Eisai Co., Ltd., priority 1993, dated 1994).

Columns and labels:
mice = conditions: cited from earlier work
APL = conditions: clinical data, Blood, 72, 567 - 572 (1988); cited from earlier work
HL-60 = assay: Cytotoxicity on HL-60 (viable cell count, Trypan Blue); type: cell-based; conditions: human, 5 days
Experimental: After the completion of the incubation, the total cell count was calculated with a Burker-Turk calculation board and the viable cell count was calculated by regarding the cells stained with Trypan Blue as the dead ones. Thus ID₅₀ and LD₅₀ were determined. Further, a cytospin slide was prepared and the morphology of the cells was observed by the May-Giemsa staining method.

[1] = Acute toxicity test, single dose, SD rats; conditions: in vivo, Rat (SD)
Experimental: (§1) By using 5 female and 5 male SD rats and ICR mice aged 7 to 8 weeks, the toxicities of the compound of the present invention were tested through oral, intramuscular, subcutaneous and intraperitoneal administrations each in a single dose (medium: 5% gum arabic).

[2] = Acute toxicity test, single dose, ICR mice; conditions: in vivo, Mouse (ICR)
Experimental: as §1

mouse papilloma = conditions: cited from earlier work
cells of APL patients = assay: Ability to induce differentiation of cells of APL patients; type: cell-based, human
Experimental: To illustrate the usefulness of the compound of the present invention as a differentiation inducer, a test example on the effects of the compound of the present invention on leukemic cells of APL patients and various cultured human leukemic cell lites will be given. The backgrounds of the patients providing the bloods employed in the test are as follows.
The cells samples from APL patients were adjusted to an initial cell count of 1 × 10⁶ cells/ml and incubated in the above-mentioned IMDM medium containing 10% of fetal calf serum for 5 days under the addition of the compound (I) or ATRA (10⁻⁶ to 10⁻⁸ mol/1), followed by the same evaluation as the one effected in the case of HL-60. Further, the ratio of mature cells to all the cells was determined in accordance with the following formula and taken as an indication for the comparison of the ability to induce differentiation: [formula]

[3] = female, ♀, oral, medium 5% gum arabic, read-out: LD₅₀ Oral
[4] = female, ip, ♀, intraperitoneal, read-out: LD₅₀ Intraperitoneal
[5] = female, sc, ♀, subcutaneous, read-out: LD₅₀ Subcutaneous
[6] = male, ♂, oral, medium 5% gum arabic, read-out: LD₅₀ Oral
[7] = male, im, ♂, intramuscular, read-out: LD₅₀ Intramuscular
[8] = male, ip, ♂, intraperitoneal, read-out: LD₅₀ Intraperitoneal
[9] = male, sc, ♂, subcutaneous, read-out: LD₅₀ Subcutaneous

## CC1=C(/C=C/C(C)=C/C=C/C(C)=C/C(=O)O)C(C)(C)CCC1 [ATRA, all-trans-retinoic acid, reference compound]
mice
  hypervitaminosis A (depilation, reduction in body weight): suffered from hypervitaminosis A including depilation and reduction in body weight
APL
  healing of APL patients: about 100%
HL-60
  ratio of the dead cells stained with Trypan Blue: ≤ 10%

## CC(C)=CCC/C(C)=C/CC/C(C)=C/C=C/C(C)=C/C(=O)O [compound (I), (2E,4E,6E,10E)-3,7,11,15-tetramethyl-2,4,6,10,14-hexadecapentaenoic acid]
mice
  hypervitaminosis A (depilation, reduction in body weight): did not suffer from such a symptom
[1]; [3]
  LD50: 2850 mg/kg
[1]; [4]
  LD50: 680 mg/kg
[1]; [5]
  LD50: 2800 mg/kg
[1]; [6]
  LD50: 2400 mg/kg
[1]; [7]
  LD50: 830 mg/kg
[1]; [8]
  LD50: 731 mg/kg
[1]; [9]
  LD50: 2500 mg/kg
HL-60
  ratio of the dead cells stained with Trypan Blue: ≤ 10%
[2]; [3]
  LD50: > 6250 mg/kg
[2]; female, im, ♀, intramuscular, read-out: LD₅₀ Intramuscular
  LD50: > 2000 mg/kg
[2]; [4]
  LD50: 1.1 mg/kg
[2]; [5]
  LD50: > 4 mg/kg
[2]; [6]
  LD50: > 6250 mg/kg
[2]; [7]
  LD50: 2 mg/kg
[2]; [8]
  LD50: 970 mg/kg
[2]; [9]
  LD50: > 4000 mg/kg
Mouse papilloma
  antitumor effect: exerts an antitumor effect
Cells of APL patients; 5 days incubation, 10⁻⁶ to 10⁻⁸ mol/l
  effect of inducing differentiation: exhibited an effect of inducing differentiation similar to ATRA
Cells of APL patients; PML/RAR-α (+)
  efficacy on cells having a fused gene PML-RAR-α: effective in all of the cases
